ChEMBL document CHEMBL1201862, “PubChem BioAssay data set” (2004)
Calls of active or inactive are those of the source.

What was measured:
[1] = target: T1, Adenosylmethionine-8-amino-7-oxononanoate aminotransferase (Mycobacterium tuberculosis, UniProt P9WQ81); assay: Mycobacterium tuberculosis BioA enzyme inhibitor Measured in Biochemical System Using Plate Reader - 2163-02_Inhibitor_Dose_CherryPick_Activity.; type: functional, Mycobacterium tuberculosis UT205
T1 sequence (P9WQ81 whole entry): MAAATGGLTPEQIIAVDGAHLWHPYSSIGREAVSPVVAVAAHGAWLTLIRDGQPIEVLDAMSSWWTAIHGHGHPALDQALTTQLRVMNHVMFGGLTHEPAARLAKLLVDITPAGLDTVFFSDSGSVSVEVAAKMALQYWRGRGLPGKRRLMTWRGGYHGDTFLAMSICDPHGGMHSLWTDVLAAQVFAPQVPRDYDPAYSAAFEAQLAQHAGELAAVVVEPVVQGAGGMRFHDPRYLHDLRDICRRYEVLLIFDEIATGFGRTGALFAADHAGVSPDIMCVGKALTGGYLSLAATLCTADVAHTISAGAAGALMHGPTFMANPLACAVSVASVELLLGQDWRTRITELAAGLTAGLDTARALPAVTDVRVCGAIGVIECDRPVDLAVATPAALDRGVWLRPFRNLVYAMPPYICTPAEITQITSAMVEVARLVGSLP

[2] = LGR2 antagonists, dose response, cell-based, HEK293, CRE-luciferase reporter, cherry pick, set 2 (AID 743343); type: functional;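 note: transfected cells were stimulated with diluted bursicon conditioned medium after compound addition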
[3] = HepG2 cell cytotoxicity, dose response, cytotoxicity control, plate reader, cherry-pick, antagonist series (AID 743416); type: functional, cell-based
[4] = A549 cell cytotoxicity, dose response, cytotoxicity control, plate reader, cherry-pick, antagonist series (AID 743412); type: functional, cell-based
[5] = HEK293 cell cytotoxicity, dose response, cytotoxicity control, plate reader, cherry-picked samples (AID 743446); type: functional, cell-based
[6] = MC4R antagonists, dose response, counter-screen for LGR2 antagonist project, cell-based, plate reader, cherry pick (AID 743444); type: functional;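 note: transfected HEK 293 cells stimulated with alpha-MSH peptide; potency of inhibitors of the alpha-MSH evoked signal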
[7] = target: T2, Leucine aminopeptidase (Plasmodium falciparum 3D7, UniProt Q8IL11); assay: P. falciparum M17LAP inhibitors, primary screen, biochemical, fluorogenic H-Leu-NHMec substrate, 1536-well (AID 1619); type: functional
T2 sequence (Q8IL11 whole entry): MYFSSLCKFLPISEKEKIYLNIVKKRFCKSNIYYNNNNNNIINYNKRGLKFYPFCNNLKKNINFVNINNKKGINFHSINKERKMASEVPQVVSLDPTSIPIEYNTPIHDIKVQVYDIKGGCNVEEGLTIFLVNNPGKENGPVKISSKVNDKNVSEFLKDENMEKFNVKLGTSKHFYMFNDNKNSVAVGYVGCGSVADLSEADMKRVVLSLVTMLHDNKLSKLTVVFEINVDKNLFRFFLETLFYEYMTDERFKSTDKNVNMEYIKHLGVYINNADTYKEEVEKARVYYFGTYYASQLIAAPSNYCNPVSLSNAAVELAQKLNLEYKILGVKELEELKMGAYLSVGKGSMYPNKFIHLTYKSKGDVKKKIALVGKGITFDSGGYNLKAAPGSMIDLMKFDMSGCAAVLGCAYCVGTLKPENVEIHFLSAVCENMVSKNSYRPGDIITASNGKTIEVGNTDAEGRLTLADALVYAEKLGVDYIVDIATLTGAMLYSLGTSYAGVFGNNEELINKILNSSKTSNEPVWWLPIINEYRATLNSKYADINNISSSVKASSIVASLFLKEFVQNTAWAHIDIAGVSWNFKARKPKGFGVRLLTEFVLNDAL

[8] = M. tuberculosis H37Rv growth inhibitors, H37Rv strain (AID 1626); type: functional
[9] = target: Disintegrin and metalloproteinase domain-containing protein 17 (Homo sapiens, UniProt P78536); assay: ADAM17 protease inhibitors, dose response, counter-screen for ADAM10 exosite inhibitor project, biochemical, quenched FRET substrate (AID 743253)
[10] = tested on: H9c2; assay: cells; type: functional, cell-based; details: Rattus norvegicus, H9c2, Myocardium;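 note: confirmatory concentration-response retest of ultra-high-throughput screening hits for modulation of myocardial damage; cell death induced by hydrogen peroxide oxidative stress; compound pretreatment for 60 min then peroxide exposure for 2 h; potency is for protecting the cells against peroxide damage rather than for killing them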
[11] = target: T3, Oxysterols receptor LXR-beta (Homo sapiens, UniProt P55055); assay: LXR agonists, Gal4 luciferase reporter, dose response, counter-screen for ssDAF-12 agonist project, cell-based, luminescence, HEK293, S. stercoralis campaign (AID 720737); type: functional; details: read-out: IC50 (the source's name)
T3 sequence (P55055 whole entry): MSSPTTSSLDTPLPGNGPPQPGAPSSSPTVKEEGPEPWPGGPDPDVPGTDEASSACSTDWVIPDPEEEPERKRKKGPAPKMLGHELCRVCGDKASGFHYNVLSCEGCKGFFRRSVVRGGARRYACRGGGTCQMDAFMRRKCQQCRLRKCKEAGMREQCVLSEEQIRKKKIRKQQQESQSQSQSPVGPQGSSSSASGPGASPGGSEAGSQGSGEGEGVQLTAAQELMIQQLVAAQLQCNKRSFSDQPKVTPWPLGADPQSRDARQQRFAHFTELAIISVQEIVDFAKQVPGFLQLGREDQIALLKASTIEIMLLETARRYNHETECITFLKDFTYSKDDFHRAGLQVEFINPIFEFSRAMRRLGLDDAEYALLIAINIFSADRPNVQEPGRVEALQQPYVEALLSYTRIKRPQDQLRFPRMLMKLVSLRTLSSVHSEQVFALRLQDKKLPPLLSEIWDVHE

[12] = Luminescence-based cell-based high throughput dose response assay to identify activators of the DAF-12 from the parasite S. stercoralis (ssDAF-12).; type: functional
[13] = tested on: Streptococcus; assay: Group A Streptococcus viability loss, dose response, counter-screen for streptokinase expression inhibitor project, luminescence, BacTiterGlo (AID 1915); type: functional, organism-based;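 note: potency for reduction of bacterial viability or growth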
[14] = tested on: Streptococcus sp. 'group A'; assay: growth inhibition of control SK(-) GAS strain, dose response, counter-screen for streptokinase expression inhibitor project, luminescence, kanamycin, BacTiterGlo, confirmation (AID 1900); type: functional, organism-based
[15] = target: T4, Streptokinase A (Streptococcus pyogenes serotype M1, UniProt P10520); assay: S. pyogenes streptokinase expression inhibitors, potency, dose response, plasminogen activation absorbance, OD405 (AID 1914); type: functional, Streptococcus pyogenes M1 GAS;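 note: secreted streptokinase activity via plasminogen activation per viability signal from cell pellet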
T4 sequence (P10520 whole entry): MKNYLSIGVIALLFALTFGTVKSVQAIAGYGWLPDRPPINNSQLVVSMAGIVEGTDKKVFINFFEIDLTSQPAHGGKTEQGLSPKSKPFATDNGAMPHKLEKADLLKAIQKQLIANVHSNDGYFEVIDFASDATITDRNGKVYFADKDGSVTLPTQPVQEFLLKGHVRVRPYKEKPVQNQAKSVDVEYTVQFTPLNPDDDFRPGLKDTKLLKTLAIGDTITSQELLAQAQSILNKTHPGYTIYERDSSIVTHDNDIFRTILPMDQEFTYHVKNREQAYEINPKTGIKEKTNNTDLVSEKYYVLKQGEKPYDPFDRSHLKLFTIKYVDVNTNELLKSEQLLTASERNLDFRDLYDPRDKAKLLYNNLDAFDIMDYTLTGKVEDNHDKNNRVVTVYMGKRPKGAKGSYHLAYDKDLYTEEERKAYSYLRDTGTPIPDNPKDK

Chain of Disintegrin and metalloproteinase domain-containing protein 17 (P78536 whole entry, the tested form may be a part): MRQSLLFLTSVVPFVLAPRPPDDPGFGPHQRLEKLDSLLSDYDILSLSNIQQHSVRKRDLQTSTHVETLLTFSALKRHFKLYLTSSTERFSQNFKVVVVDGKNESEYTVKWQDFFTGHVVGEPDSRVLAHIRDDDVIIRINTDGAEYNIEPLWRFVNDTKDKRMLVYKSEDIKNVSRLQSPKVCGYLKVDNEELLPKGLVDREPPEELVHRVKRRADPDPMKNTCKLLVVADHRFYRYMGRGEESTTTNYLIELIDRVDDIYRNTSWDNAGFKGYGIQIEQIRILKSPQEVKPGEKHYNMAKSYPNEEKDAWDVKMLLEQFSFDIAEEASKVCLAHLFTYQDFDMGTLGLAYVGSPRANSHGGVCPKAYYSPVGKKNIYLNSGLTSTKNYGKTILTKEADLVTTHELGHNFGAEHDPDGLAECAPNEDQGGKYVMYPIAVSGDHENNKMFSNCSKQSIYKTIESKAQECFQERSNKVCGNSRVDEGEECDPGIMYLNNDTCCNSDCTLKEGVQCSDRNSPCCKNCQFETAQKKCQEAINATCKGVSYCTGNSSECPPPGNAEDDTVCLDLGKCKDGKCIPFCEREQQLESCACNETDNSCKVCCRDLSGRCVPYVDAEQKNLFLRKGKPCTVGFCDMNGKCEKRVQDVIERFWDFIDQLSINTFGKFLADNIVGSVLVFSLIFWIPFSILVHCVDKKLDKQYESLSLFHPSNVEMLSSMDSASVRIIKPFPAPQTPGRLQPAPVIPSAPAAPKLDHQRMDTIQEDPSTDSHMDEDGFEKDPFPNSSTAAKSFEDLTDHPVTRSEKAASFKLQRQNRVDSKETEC

## O=C(c1ccc2c(c1)OCO2)N1CC[C@@H]2[C@H](CO)Nc3ccc(-c4ccc(F)cc4)cc3[C@@H]21
[1]
  AC50: 1.4 µM (active)

## Oc1nc2ccccc2n1C1CCN(C(CCc2ccccc2)c2nnnn2C2CCCCC2)CC1 (stereo not given)
[2]
  AC50: 20.3 µM (active)
[3]
  AC50: 30.6 µM (active)
[4]
  AC50: 15.8 µM (active)
[5]
  AC50: 12.8 µM (active)
[6]
  AC50: 14.1 µM (active)

## COc1ccc(NC(=O)CSc2nnc[nH]2)c([N+](=O)[O-])c1
[7]
  IC50: 17 µM (active)

## CCOC(=O)c1ccc(NC(=O)CCNC(=O)c2ccc([N+](=O)[O-])cc2)cc1
[8]
  IC50: > 100 µM (active)

## O=C1OCCN1C(=O)[C@H]1[C@H](c2ccc([N+](=O)[O-])cc2)C(c2ccc(F)cc2)=NN1c1ccc(Br)cc1
[9]
  IC50: > 69.5 µM (inactive)
[10]
  IC50: > 79 µM (inactive)

## CCOC(=O)c1ccc2c(c1)nc(SCc1cn3ccsc3n1)n2CC
[1]
  AC50: 1.16 µM (active)

## CCOC(=O)/C(C#N)=C/c1cn(CCOc2ccccc2)c2ccccc12
[11]
  EC50: > 67.6 µM (inactive)
[12]
  IC50: > 67.6 µM (inactive)

## CCOc1ccc(NC(=O)CSc2nc(C)cc(C)n2)cc1
[7]
  IC50: 4.3 µM (active)

## Oc1c(Cl)cc(Cl)cc1/C=N\c1cc(C(F)(F)F)ccc1N1CCc2ccccc2C1
[13]
  EC50: 11.8 µM (active)
[11]
  EC50: > 67.5 µM (inactive)
[12]
  IC50: > 67.5 µM (inactive)
[14]
  EC50: 4.75 µM (active)
[15]
  EC50: 47.7 µM (active)

## COC(=O)c1c(NC(=O)C2C3C=CC(CC3)C2C(=O)O)sc(C)c1C (stereo not given)
[7]
  IC50: 19 µM (active)

## COC(=O)c1cccc(NC(=O)c2ccc(S(=O)(=O)N(C)c3ccccc3OC)cc2)c1
[2]
  AC50: 6.56 µM (active)
[3]
  AC50: 28.9 µM (active)
[4]
  AC50: 22.7 µM (active)
[5]
  AC50: 35.8 µM (active)
[6]
  AC50: 7.98 µM (active)
